The text below walks through data of patent US20100179188A1, “NITROXIDE RADICAL AS TREATMENT FOR NEURODEGENERATION” (Office of Technology Transfer, NIH, priority 2007, published 2010).

In one assay the target is T1, IRP1 (Mus musculus, UniProt P28271).
T1 sequence (P28271 1-889): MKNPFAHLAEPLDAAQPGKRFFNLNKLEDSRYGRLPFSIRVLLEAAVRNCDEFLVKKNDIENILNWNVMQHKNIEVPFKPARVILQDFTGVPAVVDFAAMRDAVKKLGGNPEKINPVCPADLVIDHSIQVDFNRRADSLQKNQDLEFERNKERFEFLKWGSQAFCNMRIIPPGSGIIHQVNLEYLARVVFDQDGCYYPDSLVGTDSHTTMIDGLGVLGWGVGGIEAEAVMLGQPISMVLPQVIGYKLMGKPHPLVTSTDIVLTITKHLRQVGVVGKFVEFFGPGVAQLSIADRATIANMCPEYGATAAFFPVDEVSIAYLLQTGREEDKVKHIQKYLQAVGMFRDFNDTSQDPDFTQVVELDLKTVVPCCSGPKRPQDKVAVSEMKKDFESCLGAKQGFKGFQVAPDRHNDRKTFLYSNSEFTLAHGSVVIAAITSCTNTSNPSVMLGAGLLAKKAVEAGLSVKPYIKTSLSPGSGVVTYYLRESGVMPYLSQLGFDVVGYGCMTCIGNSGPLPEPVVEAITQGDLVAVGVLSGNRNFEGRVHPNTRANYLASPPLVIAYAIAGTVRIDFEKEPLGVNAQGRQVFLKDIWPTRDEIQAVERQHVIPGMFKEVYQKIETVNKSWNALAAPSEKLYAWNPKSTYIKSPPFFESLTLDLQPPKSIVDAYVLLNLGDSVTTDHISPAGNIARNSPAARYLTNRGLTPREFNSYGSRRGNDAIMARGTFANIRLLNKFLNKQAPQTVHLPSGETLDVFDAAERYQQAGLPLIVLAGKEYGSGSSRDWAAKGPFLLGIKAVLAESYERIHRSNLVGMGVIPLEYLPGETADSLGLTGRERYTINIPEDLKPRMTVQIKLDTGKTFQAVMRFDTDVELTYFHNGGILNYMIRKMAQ
Put plainly: IRE binding activity of IRP1 in brain-region lysates of IRP2−/− mice (gel-shift). In kind it is in vivo. Also on record: Lysates made from various brain regions of IRP2−/− mice; from tissue; host or cells: mouse brain (cerebellum, forebrain, brain-stem) lysates. The following applies: lysates from cerebellum, brain-stem and forebrain of IRP2−/− mice, Tempo1 diet vs control diet. As for the experimental part:
(§1) Diet: The mice were weaned 3-4 weeks after their birth. Immediately after weaning, mice were maintained on either a Tempo1-supplemented or control diet. In the Tempo1-supplemented diet, powdered Tempo1 was uniformly mixed with bacon-flavored mouse chow by a “cold press” technique (Bio-Serv, Frenchtown, N.J., USA) at a concentration of 10 mg/g of food. Bacon-flavored chow without Tempo1 was used as the control diet.
Tissue and lysate preparation: Animals were euthanized and tissues were frozen in liquid nitrogen immediately after harvesting, and stored at −80° C. under argon. Experiments were performed on tissues that were pulverized in liquid N2-cooled mortars in an anaerobic chamber, and then lysed in lysis buffer that was deaerated by cyclic freezethaw and air-removal with argon. […]
Lysates made from various brain regions of IRP2−/− mice that were maintained on a control diet or on a Tempo1-supplemented diet were analyzed for IRE binding activity of IRP1 and for TfR1, IRP1, and actin protein levels by gel-shift assay and Western blot. […] FIG. 3b is a quantification of the results as intensity of the bands relative to the control, represented here as 100%. Quantification was performed with the IQMac (IRP1 activity) or NIH Image (protein levels) program. Error bars represent the standard deviation calculated from the results of two different sets of animals.

The next assay deals with IRP2−/− mice. Put plainly: Observation of other signs of neurodegeneration in IRP2−/− mice. In kind it is in vivo. The following applies: IRP2−/− mice supplemented with Tempo1.
Source text: Background on Experimental Model: In the following examples, IRP2−/− mice are used to model neurodegerative disease. The neurodegeneration of IRP2−/− animals is characterized by progressive loss of motor capabilities, for example as measured in mice by performance on hang-tests, rotarod rotating drum treadmill testing, balance beams, climbing pole tests, allelerods, footprints, decreased grooming activities and gait abnormalities in adult animals. The neurodegeneration of IRP2−/− animals progresses slowly as animals age.
as §1

Turning to `CC1(C)CC(O)CC(C)(C)N1[O]` [Tempo1], the IRE-binding activity entry at IRP1 was “markedly increased”. Besides, the “other signs of neurodegeneration (movement disorders, tremor, abnormalities of gait and grooming)” value in the assay with IRP2−/− mice is recorded as “did not develop”.
